Data from paper PMC10905675, “INX-315, a Selective CDK2 Inhibitor, Induces Cell Cycle Arrest and Senescence in Solid Tumors” (Cancer Discovery, 2023).

Experiments:
Details in all cases: INX-0315 at 100nM
[1] = target: T1, BRSK2 (Homo sapiens, UniProt Q8IWQ3); assay: SelectScreen LanthaScreen Binding
T1 construct: purchased Thermo Fisher Scientific SelectScreen (plus Nanosyn / Reaction Biology for CDK/cyclin lines)
Description: (§1) INX-315 was first evaluated in the SelectScreen Biochemical Kinase Profiling at Thermo Fisher Scientific (Madison, WI). The primary screen consisted of INX-315 dosed at a single concentration of 100 nmol/L in 1% DMSO across each platform within the SelectScreen array of assays, LanthaScreen Eu Kinase Binding Assay; AdaptaScreen; and Z'LyteScreen using preestablished conditions at Thermo Fisher Scientific as shown in Supplementary Table S2. […] The follow-up screen consisted of 10-point dose–response curves for INX-315 from 1 µmol/L to 0.0495 nmol/L.

[2] = target: T2, CDC7/DBF4 (Homo sapiens, UniProt O00311); assay: SelectScreen LanthaScreen Binding
T2 construct: purchased Thermo Fisher Scientific SelectScreen (plus Nanosyn / Reaction Biology for CDK/cyclin lines)
Description: as §1

[3] = target: T3, CDK9 (Inactive) (Homo sapiens, UniProt P50750); assay: SelectScreen LanthaScreen Binding
T3 construct: purchased Thermo Fisher Scientific SelectScreen (plus Nanosyn / Reaction Biology for CDK/cyclin lines)
Description: as §1

[4] = target: T4, ULK3 (Homo sapiens, UniProt Q6PHR2); assay: SelectScreen LanthaScreen Binding
T4 construct: purchased Thermo Fisher Scientific SelectScreen (plus Nanosyn / Reaction Biology for CDK/cyclin lines)
Description: as §1

[5] = target: T5, RET M918T (Homo sapiens, UniProt P07949, M918T); assay: SelectScreen LanthaScreen Binding
T5 construct: purchased Thermo Fisher Scientific SelectScreen (plus Nanosyn / Reaction Biology for CDK/cyclin lines)
Description: as §1

[6] = target: T6, PRKACG (PRKAC gamma) (Homo sapiens, UniProt P22612); assay: SelectScreen LanthaScreen Binding
T6 construct: purchased Thermo Fisher Scientific SelectScreen (plus Nanosyn / Reaction Biology for CDK/cyclin lines)
Description: as §1

[7] = target: T7, TEK (TIE2) R849W (Homo sapiens, UniProt Q02763, R849W); assay: SelectScreen LanthaScreen Binding
T7 construct: purchased Thermo Fisher Scientific SelectScreen (plus Nanosyn / Reaction Biology for CDK/cyclin lines)
Description: as §1

[8] = target: T8, CDK11/cyclin C (Homo sapiens, UniProt Q9BWU1); assay: SelectScreen LanthaScreen Binding
T8 construct: purchased Thermo Fisher Scientific SelectScreen (plus Nanosyn / Reaction Biology for CDK/cyclin lines)
Description: as §1

[9] = target: T9, TLK2 (Homo sapiens, UniProt Q86UE8); assay: SelectScreen LanthaScreen Binding
T9 construct: purchased Thermo Fisher Scientific SelectScreen (plus Nanosyn / Reaction Biology for CDK/cyclin lines)
Description: as §1

[10] = target: T10, TAOK3 (JIK) (Homo sapiens, UniProt Q9H2K8); assay: SelectScreen LanthaScreen Binding
T10 construct: purchased Thermo Fisher Scientific SelectScreen (plus Nanosyn / Reaction Biology for CDK/cyclin lines)
Description: as §1

[11] = target: T11, TNIK (Homo sapiens, UniProt Q9UKE5); assay: SelectScreen LanthaScreen Binding
T11 construct: purchased Thermo Fisher Scientific SelectScreen (plus Nanosyn / Reaction Biology for CDK/cyclin lines)
Description: as §1

[12] = target: T12, FLT1 (VEGFR1) (Homo sapiens, UniProt P17948); assay: SelectScreen ZLYTE; format: biochemical
T12 construct: purchased Thermo Fisher Scientific SelectScreen (plus Nanosyn / Reaction Biology for CDK/cyclin lines)
Summary of the method: (§2)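 The compound is dosed at 100 nmol/L in 1% DMSO for the initial pass. Dose–response work then covers ten points between 1 µmol/L and 0.0495 nmol/L, with assay conditions as predefined by the service.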

[13] = target: T13, RPS6KA6 (RSK4) (Homo sapiens, UniProt Q9UK32); assay: SelectScreen ZLYTE; format: biochemical
T13 construct: purchased Thermo Fisher Scientific SelectScreen (plus Nanosyn / Reaction Biology for CDK/cyclin lines)
Summary of the method: as §2

[14] = target: T14, INSRR (IRR) (Homo sapiens, UniProt P14616); assay: SelectScreen ZLYTE; format: biochemical
T14 construct: purchased Thermo Fisher Scientific SelectScreen (plus Nanosyn / Reaction Biology for CDK/cyclin lines)
Summary of the method: as §2

[15] = target: T15, EPHA4 (Homo sapiens, UniProt P54764); assay: SelectScreen ZLYTE; format: biochemical
T15 construct: purchased Thermo Fisher Scientific SelectScreen (plus Nanosyn / Reaction Biology for CDK/cyclin lines)
Summary of the method: as §2

[16] = target: T16, RET S891A (Homo sapiens, UniProt P07949, S891A); assay: SelectScreen ZLYTE; format: biochemical
T16 construct: purchased Thermo Fisher Scientific SelectScreen (plus Nanosyn / Reaction Biology for CDK/cyclin lines)
Summary of the method: as §2

[17] = target: T17, FGFR2 (Homo sapiens, UniProt P21802); assay: SelectScreen ZLYTE; format: biochemical
T17 construct: purchased Thermo Fisher Scientific SelectScreen (plus Nanosyn / Reaction Biology for CDK/cyclin lines)
Summary of the method: as §2

[18] = target: T18, FLT4 (VEGFR3) (Homo sapiens, UniProt P35916); assay: SelectScreen ZLYTE; format: biochemical
T18 construct: purchased Thermo Fisher Scientific SelectScreen (plus Nanosyn / Reaction Biology for CDK/cyclin lines)
Summary of the method: as §2

[19] = target: T19, RPS6KB1 (p70S6K) (Homo sapiens, UniProt P23443); assay: SelectScreen ZLYTE; format: biochemical
T19 construct: purchased Thermo Fisher Scientific SelectScreen (plus Nanosyn / Reaction Biology for CDK/cyclin lines)
Summary of the method: as §2

[20] = target: T20, PASK (Homo sapiens, UniProt Q96RG2); assay: SelectScreen ZLYTE; format: biochemical
T20 construct: purchased Thermo Fisher Scientific SelectScreen (plus Nanosyn / Reaction Biology for CDK/cyclin lines)
Summary of the method: as §2

[21] = target: T21, MAP3K19 (YSK4) (Homo sapiens, UniProt Q56UN5); assay: SelectScreen ZLYTE; format: biochemical
T21 construct: purchased Thermo Fisher Scientific SelectScreen (plus Nanosyn / Reaction Biology for CDK/cyclin lines)
Summary of the method: as §2

[22] = target: T22, FRK (PTK5) (Homo sapiens, UniProt P42685); assay: SelectScreen ZLYTE; format: biochemical
T22 construct: purchased Thermo Fisher Scientific SelectScreen (plus Nanosyn / Reaction Biology for CDK/cyclin lines)
Summary of the method: as §2

[23] = target: T23, BRAF (Homo sapiens, UniProt P15056); assay: SelectScreen ZLYTE; format: biochemical
T23 construct: purchased Thermo Fisher Scientific SelectScreen (plus Nanosyn / Reaction Biology for CDK/cyclin lines)
Summary of the method: as §2

[24] = target: T24, EPHA8 (Homo sapiens, UniProt P29322); assay: SelectScreen ZLYTE; format: biochemical
T24 construct: purchased Thermo Fisher Scientific SelectScreen (plus Nanosyn / Reaction Biology for CDK/cyclin lines)
Summary of the method: as §2

[25] = target: T25, CSNK1G3 (CK1 gamma 3) (Homo sapiens, UniProt Q9Y6M4); assay: SelectScreen ZLYTE; format: biochemical
T25 construct: purchased Thermo Fisher Scientific SelectScreen (plus Nanosyn / Reaction Biology for CDK/cyclin lines)
Summary of the method: as §2

[26] = target: T26, KIT V559D (Homo sapiens, UniProt P10721, V559D); assay: SelectScreen ZLYTE; format: biochemical
T26 construct: purchased Thermo Fisher Scientific SelectScreen (plus Nanosyn / Reaction Biology for CDK/cyclin lines)
Summary of the method: as §2

[27] = target: T27, TNK1 (Homo sapiens, UniProt Q13470); assay: SelectScreen ZLYTE; format: biochemical
T27 construct: purchased Thermo Fisher Scientific SelectScreen (plus Nanosyn / Reaction Biology for CDK/cyclin lines)
Summary of the method: as §2

[28] = target: T28, ALK (Homo sapiens, UniProt Q9UM73); assay: SelectScreen ZLYTE; format: biochemical
T28 construct: purchased Thermo Fisher Scientific SelectScreen (plus Nanosyn / Reaction Biology for CDK/cyclin lines)
Summary of the method: as §2

[29] = target: T29, DCAMKL1 (DCLK1) (Homo sapiens, UniProt O15075); assay: SelectScreen ZLYTE; format: biochemical
T29 construct: purchased Thermo Fisher Scientific SelectScreen (plus Nanosyn / Reaction Biology for CDK/cyclin lines)
Summary of the method: as §2

[30] = target: T30, RET V804L (Homo sapiens, UniProt P07949, V804L); assay: SelectScreen ZLYTE; format: biochemical
T30 construct: purchased Thermo Fisher Scientific SelectScreen (plus Nanosyn / Reaction Biology for CDK/cyclin lines)
Summary of the method: as §2

[31] = target: T31, FGFR4 (Homo sapiens, UniProt P22455); assay: SelectScreen ZLYTE; format: biochemical
T31 construct: purchased Thermo Fisher Scientific SelectScreen (plus Nanosyn / Reaction Biology for CDK/cyclin lines)
Summary of the method: as §2

[32] = target: T32, PRKG2 (PKG2) (Homo sapiens, UniProt Q13237); assay: SelectScreen ZLYTE; format: biochemical
T32 construct: purchased Thermo Fisher Scientific SelectScreen (plus Nanosyn / Reaction Biology for CDK/cyclin lines)
Summary of the method: as §2

[33] = target: T33, PRKACA (PKA) (Homo sapiens, UniProt P17612); assay: SelectScreen ZLYTE; format: biochemical
T33 construct: purchased Thermo Fisher Scientific SelectScreen (plus Nanosyn / Reaction Biology for CDK/cyclin lines)
Summary of the method: as §2

[34] = target: T34, JAK1 (Homo sapiens, UniProt P23458); assay: SelectScreen ZLYTE; format: biochemical
T34 construct: purchased Thermo Fisher Scientific SelectScreen (plus Nanosyn / Reaction Biology for CDK/cyclin lines)
Summary of the method: as §2

[35] = target: T35, CAMK4 (CaMKIV) (Homo sapiens, UniProt Q16566); assay: SelectScreen ZLYTE; format: biochemical
T35 construct: purchased Thermo Fisher Scientific SelectScreen (plus Nanosyn / Reaction Biology for CDK/cyclin lines)
Summary of the method: as §2

[36] = target: T36, EGFR (ErbB1) C797S (Homo sapiens, UniProt P00533, C797S); assay: SelectScreen ZLYTE; format: biochemical
T36 construct: purchased Thermo Fisher Scientific SelectScreen (plus Nanosyn / Reaction Biology for CDK/cyclin lines)
Summary of the method: as §2

[37] = target: T37, ABL1 Y253F (Homo sapiens, UniProt P00519, Y253F); assay: SelectScreen ZLYTE; format: biochemical
T37 construct: purchased Thermo Fisher Scientific SelectScreen (plus Nanosyn / Reaction Biology for CDK/cyclin lines)
Summary of the method: as §2

T27 sequence (Q13470 whole entry): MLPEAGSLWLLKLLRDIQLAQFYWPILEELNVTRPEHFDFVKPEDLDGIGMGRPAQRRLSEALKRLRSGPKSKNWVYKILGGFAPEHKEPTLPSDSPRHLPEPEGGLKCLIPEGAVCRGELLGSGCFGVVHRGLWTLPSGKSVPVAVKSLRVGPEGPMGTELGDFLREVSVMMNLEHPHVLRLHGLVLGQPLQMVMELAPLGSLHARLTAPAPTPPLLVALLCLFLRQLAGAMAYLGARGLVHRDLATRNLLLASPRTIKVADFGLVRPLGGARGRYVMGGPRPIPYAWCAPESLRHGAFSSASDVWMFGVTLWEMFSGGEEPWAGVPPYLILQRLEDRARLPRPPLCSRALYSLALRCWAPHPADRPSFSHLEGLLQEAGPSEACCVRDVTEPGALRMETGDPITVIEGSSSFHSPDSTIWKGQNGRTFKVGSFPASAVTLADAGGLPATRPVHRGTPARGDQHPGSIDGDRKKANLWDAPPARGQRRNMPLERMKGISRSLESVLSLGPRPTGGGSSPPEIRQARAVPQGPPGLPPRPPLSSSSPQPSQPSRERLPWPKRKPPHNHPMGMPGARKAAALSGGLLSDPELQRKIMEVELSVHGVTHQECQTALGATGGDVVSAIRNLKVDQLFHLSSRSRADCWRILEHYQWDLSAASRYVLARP
T23 sequence (P15056 whole entry): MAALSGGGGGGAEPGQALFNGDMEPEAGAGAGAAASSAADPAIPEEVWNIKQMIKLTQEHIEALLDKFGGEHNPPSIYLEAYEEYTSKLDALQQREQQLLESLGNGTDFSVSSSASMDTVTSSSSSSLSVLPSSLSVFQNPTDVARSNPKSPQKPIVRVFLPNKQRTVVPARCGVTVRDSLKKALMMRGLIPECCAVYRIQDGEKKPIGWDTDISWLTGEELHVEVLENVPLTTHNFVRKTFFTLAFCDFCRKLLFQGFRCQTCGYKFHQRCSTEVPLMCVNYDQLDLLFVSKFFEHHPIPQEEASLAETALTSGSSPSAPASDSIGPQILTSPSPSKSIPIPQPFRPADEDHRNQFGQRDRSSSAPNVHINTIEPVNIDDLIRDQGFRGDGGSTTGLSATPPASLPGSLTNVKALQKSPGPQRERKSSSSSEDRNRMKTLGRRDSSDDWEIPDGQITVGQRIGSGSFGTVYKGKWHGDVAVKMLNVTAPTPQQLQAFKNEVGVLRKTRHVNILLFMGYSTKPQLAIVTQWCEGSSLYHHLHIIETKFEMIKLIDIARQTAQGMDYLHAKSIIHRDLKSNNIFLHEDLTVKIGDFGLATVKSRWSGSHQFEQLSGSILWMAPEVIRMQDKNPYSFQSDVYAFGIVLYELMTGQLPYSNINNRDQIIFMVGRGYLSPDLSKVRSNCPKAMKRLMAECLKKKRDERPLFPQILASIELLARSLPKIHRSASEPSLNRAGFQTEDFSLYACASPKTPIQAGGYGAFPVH
T19 sequence (P23443 whole entry): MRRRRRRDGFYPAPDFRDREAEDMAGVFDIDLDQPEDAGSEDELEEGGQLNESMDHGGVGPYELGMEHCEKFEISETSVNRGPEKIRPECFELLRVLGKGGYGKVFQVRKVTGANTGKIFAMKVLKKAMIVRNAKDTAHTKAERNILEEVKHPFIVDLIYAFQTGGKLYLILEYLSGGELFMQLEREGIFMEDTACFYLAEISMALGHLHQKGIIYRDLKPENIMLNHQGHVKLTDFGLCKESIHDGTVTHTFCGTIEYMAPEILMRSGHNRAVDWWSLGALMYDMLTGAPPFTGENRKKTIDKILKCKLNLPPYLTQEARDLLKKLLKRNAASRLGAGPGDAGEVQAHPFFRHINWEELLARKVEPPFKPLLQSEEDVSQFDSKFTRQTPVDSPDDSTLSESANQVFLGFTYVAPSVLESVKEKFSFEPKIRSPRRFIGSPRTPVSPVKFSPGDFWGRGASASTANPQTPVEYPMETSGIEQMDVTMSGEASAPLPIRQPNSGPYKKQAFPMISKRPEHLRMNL
T12 sequence (P17948 27-1338): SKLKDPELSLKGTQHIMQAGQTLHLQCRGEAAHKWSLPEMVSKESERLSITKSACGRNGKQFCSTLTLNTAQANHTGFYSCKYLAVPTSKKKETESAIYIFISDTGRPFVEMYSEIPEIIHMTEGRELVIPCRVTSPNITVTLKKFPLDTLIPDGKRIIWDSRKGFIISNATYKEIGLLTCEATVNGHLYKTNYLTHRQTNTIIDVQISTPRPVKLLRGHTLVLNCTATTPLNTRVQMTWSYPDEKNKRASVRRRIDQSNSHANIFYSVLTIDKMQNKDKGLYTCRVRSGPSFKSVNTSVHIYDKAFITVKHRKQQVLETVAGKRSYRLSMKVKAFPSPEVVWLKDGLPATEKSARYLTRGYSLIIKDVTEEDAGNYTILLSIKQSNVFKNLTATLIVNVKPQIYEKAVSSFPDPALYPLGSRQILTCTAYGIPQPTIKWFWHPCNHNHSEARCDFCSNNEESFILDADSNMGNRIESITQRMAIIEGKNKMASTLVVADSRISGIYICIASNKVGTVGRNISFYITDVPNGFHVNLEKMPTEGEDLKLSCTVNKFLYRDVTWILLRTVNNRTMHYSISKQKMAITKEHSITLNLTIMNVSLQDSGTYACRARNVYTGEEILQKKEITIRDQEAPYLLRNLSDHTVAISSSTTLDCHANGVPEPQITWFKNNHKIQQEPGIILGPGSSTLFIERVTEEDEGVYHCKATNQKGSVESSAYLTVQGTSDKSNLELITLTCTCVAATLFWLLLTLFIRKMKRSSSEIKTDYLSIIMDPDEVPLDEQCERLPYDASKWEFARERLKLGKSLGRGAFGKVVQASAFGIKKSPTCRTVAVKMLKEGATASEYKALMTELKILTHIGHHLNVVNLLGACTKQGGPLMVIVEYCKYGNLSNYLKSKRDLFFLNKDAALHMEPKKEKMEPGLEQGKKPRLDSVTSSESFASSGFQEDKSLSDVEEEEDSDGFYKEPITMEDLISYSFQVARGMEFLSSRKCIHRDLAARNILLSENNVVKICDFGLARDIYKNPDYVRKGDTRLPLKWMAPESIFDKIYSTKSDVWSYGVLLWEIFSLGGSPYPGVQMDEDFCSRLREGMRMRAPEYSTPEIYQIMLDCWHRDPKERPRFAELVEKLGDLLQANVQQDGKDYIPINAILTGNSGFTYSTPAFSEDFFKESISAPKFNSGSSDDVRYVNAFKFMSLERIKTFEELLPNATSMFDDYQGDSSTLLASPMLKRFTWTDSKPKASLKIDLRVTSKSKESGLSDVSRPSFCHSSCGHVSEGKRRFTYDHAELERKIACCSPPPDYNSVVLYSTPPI
T36 sequence (P00533 25-1210 C797S): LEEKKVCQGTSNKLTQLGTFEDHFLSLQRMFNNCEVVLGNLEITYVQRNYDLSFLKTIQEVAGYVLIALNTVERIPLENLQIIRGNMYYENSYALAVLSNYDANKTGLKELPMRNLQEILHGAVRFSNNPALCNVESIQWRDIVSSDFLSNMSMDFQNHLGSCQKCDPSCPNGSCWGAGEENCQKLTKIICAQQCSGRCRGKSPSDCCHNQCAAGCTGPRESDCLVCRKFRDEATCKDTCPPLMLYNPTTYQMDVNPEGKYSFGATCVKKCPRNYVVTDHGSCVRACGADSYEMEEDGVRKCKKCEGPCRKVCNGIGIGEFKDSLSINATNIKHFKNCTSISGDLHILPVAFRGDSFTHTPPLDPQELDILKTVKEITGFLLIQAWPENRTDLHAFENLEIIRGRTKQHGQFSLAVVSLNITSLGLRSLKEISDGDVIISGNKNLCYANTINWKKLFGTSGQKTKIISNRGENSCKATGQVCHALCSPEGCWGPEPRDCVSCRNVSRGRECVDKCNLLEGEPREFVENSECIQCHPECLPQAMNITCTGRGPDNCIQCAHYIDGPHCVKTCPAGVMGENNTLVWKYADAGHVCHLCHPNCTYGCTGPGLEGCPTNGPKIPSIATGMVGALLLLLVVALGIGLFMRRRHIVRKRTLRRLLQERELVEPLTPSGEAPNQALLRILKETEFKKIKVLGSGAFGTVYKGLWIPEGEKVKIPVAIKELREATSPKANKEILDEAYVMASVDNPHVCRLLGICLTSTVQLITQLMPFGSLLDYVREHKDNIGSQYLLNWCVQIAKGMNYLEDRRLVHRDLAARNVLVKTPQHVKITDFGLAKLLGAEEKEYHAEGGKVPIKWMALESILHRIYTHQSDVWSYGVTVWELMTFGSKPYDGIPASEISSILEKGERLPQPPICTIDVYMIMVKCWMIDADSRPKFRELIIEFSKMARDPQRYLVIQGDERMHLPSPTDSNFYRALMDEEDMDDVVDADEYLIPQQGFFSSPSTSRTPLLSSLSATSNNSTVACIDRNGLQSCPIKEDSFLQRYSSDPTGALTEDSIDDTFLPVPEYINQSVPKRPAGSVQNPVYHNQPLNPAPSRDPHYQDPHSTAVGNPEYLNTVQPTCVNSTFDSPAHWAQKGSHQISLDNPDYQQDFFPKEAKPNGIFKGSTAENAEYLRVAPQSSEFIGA
T35 sequence (Q16566 whole entry): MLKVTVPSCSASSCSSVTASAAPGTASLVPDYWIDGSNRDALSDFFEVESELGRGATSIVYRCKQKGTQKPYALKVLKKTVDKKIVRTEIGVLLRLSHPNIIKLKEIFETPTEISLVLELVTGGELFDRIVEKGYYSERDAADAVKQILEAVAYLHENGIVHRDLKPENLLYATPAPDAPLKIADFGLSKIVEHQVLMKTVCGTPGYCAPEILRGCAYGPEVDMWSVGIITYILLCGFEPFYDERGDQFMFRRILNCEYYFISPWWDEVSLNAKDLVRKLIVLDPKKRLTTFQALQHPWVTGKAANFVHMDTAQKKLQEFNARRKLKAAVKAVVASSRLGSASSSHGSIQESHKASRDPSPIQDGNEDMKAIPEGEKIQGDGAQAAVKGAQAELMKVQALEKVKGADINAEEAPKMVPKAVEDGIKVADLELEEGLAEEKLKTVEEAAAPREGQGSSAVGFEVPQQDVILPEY

In the case of `NS(=O)(=O)c1ccc(Nc2ncc3cc4n(c3n2)C2(CCCCC2)C(=O)NN4)cc1` [INX-315], the inhibition at 0.1 µM [1] is reported as 4%, the inhibition at 0.1 µM [2] is reported as -1% and the inhibition at 0.1 µM [3] is reported as 44%. The inhibition at 0.1 µM [4] was 25%, the inhibition at 0.1 µM [5] was 42% and the inhibition at 0.1 µM [6] was -12%. It also gave an inhibition at 0.1 µM [7] of 7%, an inhibition at 0.1 µM [8] of 1% and an inhibition at 0.1 µM [9] of 13%. For the same compound, the inhibition at 0.1 µM [10] was 4%, the inhibition at 0.1 µM [11] was 12% and the inhibition at 0.1 µM [12] was 11%. For the same compound, the inhibition at 0.1 µM [13] was 56%, the inhibition at 0.1 µM [14] was 3% and the inhibition at 0.1 µM [15] was 5%. The inhibition at 0.1 µM [16] was 46%, the inhibition at 0.1 µM [17] was 20% and the inhibition at 0.1 µM [18] was 53%. For the same compound, the inhibition at 0.1 µM [19] was 1%, the inhibition at 0.1 µM [20] was 2% and the inhibition at 0.1 µM [21] was 13%. For the same compound, the inhibition at 0.1 µM [22] was 7%, the inhibition at 0.1 µM [23] was 11% and the inhibition at 0.1 µM [24] was 16%. For the same compound, the inhibition at 0.1 µM [25] was -1%, the inhibition at 0.1 µM [26] was 21% and the inhibition at 0.1 µM [27] was 14%. It also gave an inhibition at 0.1 µM [28] of 16%, an inhibition at 0.1 µM [29] of 9% and an inhibition at 0.1 µM [30] of 35%. The inhibition at 0.1 µM [31] was 2%, the inhibition at 0.1 µM [32] was -1% and the inhibition at 0.1 µM [33] was 4%. The inhibition at 0.1 µM [34] was 78%, the inhibition at 0.1 µM [35] was 0% and the inhibition at 0.1 µM [36] was -8%. For the same compound, the inhibition at 0.1 µM [37] was 8%.
